Data from US20030181436A1, “Treatment for AIDS, HIV, and other related diseases and compounds for use therewith” (priority 2001, published 2003).

Columns and labels:
[1] = tested on: PBMCs; type: cell-based, Human
Experimental: Peripheral blood […] cells (PBMCs) were obtained from normal hepatitis B and C and HIV-1 negative donors by ficoll hypaque gradient separation. Briefly, anti-coagulated blood was diluted 1:1 with Dulbecco's phosphate buffered saline without Ca^+2 and Mg^+@ (PBS) and layered over 14 mL of Lymphocyte separation media in a 50 ml centrifuge tube. Tubes were then centrifuged for 30 minutes at 600×g. Banded PBLs were gently aspirated from the resulting interface and subsequently washed 2× with PBS by low speed centrifugation. The mononuclear cells were counted, viability determined by Trypan Blue dye exclusion and resuspended in RPMI 1640 medium supplemented with 15% FBS (heat inactivated), 2 mM L-glutamine, 100 U/mL penicillin, 100 μg/mL streptomycin, and 10 μg/mL gentamycin with 2 μg/mL phytohemagluttin (PHA) at 1×10^6 cells/mL. The cells were cultured for 48 to 72 h at 37° C., 5%, C^02. Following incubation, cells were collected by centrifugation, washed and resuspended in RPMI 1640 supplemented with 15% FBS (heat inactivated), 2 mM L-glutamine, 100 U/mL penicillin, 100 μg/mL streptomycin, and 10 μg/mL gentamycin with 40 U/mL, recombinant IL-2 (R & D Systems, Minneapolis, Minn.). IL-2 was included in the culture medium to maintain the cell division initiated by the PHA mitogenic stimulation. The cultures were then maintained until use by ½ culture volume change with fresh IL-2 containing medium every 3 days.
Human peripheral blood mononuclear cells from a minimum of 2 donors, that were blasted with PHA and IL-2, were counted, viability determined by Trypan Blue dye exclusion and mixed in equal ratios. Pooled donors were used to minimize the variability observed between individual donors which results from quantitative and qualitative differences in HIV infection and overall response to the PHA and IL-2 of primary lymphocyte populations. […] The assay was incubated for 6 days in a humidified atmosphere at 37° C., 5% CO2, the plates analyzed for cell viability by MTS dye reduction or incorporation of [^3H] metabolite incorporation.
[^3H]Uridine, [^3H] thymidine or [^3H]leucine incorporation were measured in the following manner. […] Incorporation was then determined on a Wallac Microbeta counter following lysis of the cells with H2O and capture on glass fiber filters using a Skatron harvester.
At assay termination the assay plates were stained with the soluble tetrazolium-based dye MTS (CellTiter® Reagent, Promega) to determined cell viability and quantify compound toxicity. MTS is metabolized by the mitochondria enzymes of metabolically active cells to a soluble formazan product, allowing the rapid quantitative analysis cell viability and compound cytotoxicity. […]

[2] = tested on: HeLa CD4 LTR β-gal cells; test: Cytotoxicity for HeLa CD4 LTR β-gal cells; type: cell-based; conditions: for cytotoxic effects on the HeLa CD4 LTR β-gal cells: initial testing
Experimental: At assay termination the assay plates were stained with the soluble tetrazolium-based dye MTS (CellTiter® Reagent, Promega) to determined cell viability and quantify compound toxicity. […] At termination of the assay 20 μL of MTS reagent was added per well. The wells were incubated for 4 h at 37° C., 5% CO2. Adhesive plate scalers were used in place of the lids, the sealed plate was inverted several times to mix the soluble formazan product and the plate was read spectrophotometrically at 490 nm with a 650 nm reference wavelength on a Molecular Devices Vmax plate reader.
This cell line represents one of 3 standard models for performing time of addition assays.

[3] = tested on: SK-1 strain of HIV in CEM-SS cells; test: Chronically infected CEM/SK-1 cell assay, RT values; type: cell-based
Experimental: Reverse transcriptase activity was measured in cell-free supernatants. Tritiated thymidine triphosphate (NEN) (TTP) was resuspended in distilled H2O at 5 Ci/mL. Poly rA and oligo dT were prepared as a stock solution which was kept at −20° C. The RT reaction buffer was prepared fresh on a daily basis and consists of 125 μL 1.0 M EGTA, 125 μL dH2O, 110 μL 10% SDS, 50 μL 1.0 M Tris (pH 7.4), 50 μL, 1.0 M DTT, and 40 μL 1.0 M MgCl2. These three solutions were mixed together in a ratio of 2 parts TTP, 1 part poly rA:oligo dT, and 1 part reaction buffer. Ten microliters of this reaction mixture was placed in a round bottom microtiter plate and 15 μL of virus containing supernatant was added and mixed. The plate was incubated at 37° C. in a water bath with a solid support to prevent submersion of the plate and incubated for 60 minutes. Following reaction, the reaction volume was spotted onto pieces of DE81 paper, washed 5 times for 5 minutes each in a 5% sodium phosphate buffer, 2 times for 1 minute each in distilled water, 2 times for 1 minute each in 70% ethanol, and then dried. Opti-Fluor O was added to each sample and incorporated radioactivity was quantitated utilizing a Wallac 1450 Microbetaplus liquid scintillation counter.
The chronically infected CEM cells were cultured and the assay performed in RPMI 1640 supplemental with 10% Fetal Bovine Serum (heat inactivated), 2 mM L-glutamine, 100 U/mL penicillin, […] and 10 ug/mL gentamycin. On day 3 cell-free supernatants were collected and cell viability measured by MTS dye reduction. (See Table 13 and FIG. 20).

Potassium Iodiscorbate [Compound K] was tested, and the “TC50 in PBMCs by MTS” value [1] was 499 µg/mL, the “non-toxic to PBMCs at concentrations” value [1] was “above 400 μg/ml” and the “protein (leucine incorporation) and RNA (uridine incorporation) production start to drop” value [1] was “above 32 μg/ml”. For the same substance, the “cytotoxic effects on the HeLa CD4 LTR β-gal cells” value [2] was “no significant cytotoxic effects”.
Zinc Iodiscorbate [Compound Z] was tested, and the “non-toxic to PBMCs at concentrations” value [1] was “above 400 μg/ml”, the “TOXICITY VALUES (Cell Titer) MEAN” value ([2]; 3.2 μG/mL) was 1.156 O. D and the “TOXICITY VALUES (Cell Titer) MEAN” value ([2]; 10 μG/mL) was 1.176 O. D. The “% CC” value ([2]; 100 μG/mL) was 22.6%, the “TOXICITY VALUES (Cell Titer) MEAN” value ([2]; 100 μG/mL) was 0.259 O. D and the “% CC” value ([2]; 320 μG/mL) was 18.5%. The “TOXICITY VALUES (Cell Titer) MEAN” value ([2]; 320 μG/mL) was 0.212 O. D, the “% CC” value ([2]; 1000 μG/mL) was 18.2% and the “TOXICITY VALUES (Cell Titer) MEAN” value ([2]; 1000 μG/mL) was 0.208 O. D. The TC50 ([2]; HeLa CD4 LTR β-gal cells) was 75 µg/mL, the “cytotoxic effects on the HeLa CD4 LTR β-gal cells” value [2] was “no significant cytotoxic effects” and the “% VC” value ([3]; 0.625 μG/Ml) was 95.1%. The “RT VALUES (cpm) MEAN” value ([3]; 0.625 μG/Ml) was 9997.0 cpm, the “% VC” value ([3]; 2 μG/Ml) was 96.8% and the “RT VALUES (cpm) MEAN” value ([3]; 2 μG/Ml) was 10178.7 cpm. For the same substance, the “% VC” value ([3]; 6.25 μG/Ml) was 16.8%, the “RT VALUES (cpm) MEAN” value ([3]; 6.25 μG/Ml) was 1761.0 cpm and the “% VC” value ([3]; 20 μG/Ml) was 1.2%. The “RT VALUES (cpm) MEAN” value ([3]; 20 μG/Ml) was 128.0 cpm, the “% VC” value ([3]; 62.5 μG/Ml) was 1.0% and the “RT VALUES (cpm) MEAN” value ([3]; 62.5 μG/Ml) was 104.0 cpm. The “% VC” value ([3]; 200 μG/Ml) was 0.5%, the “RT VALUES (cpm) MEAN” value ([3]; 200 μG/Ml) was 48.0 cpm and the IC50 ([3]; CEMSK1 chronic infection) was “IC50 (μG/Ml) = 4.49”.
